Columns and labels:
Sprague Dawley rats = test: Feed intake in Sprague Dawley rats; type: in vivo, rat; details: 25 mg/kg i.p., cumulative feed intake vs vehicle control
Description: In Vivo Efficacy Studies: Feed Intake in Sprague Dawley Rats:
Sprague Dawley rats of 6-8 week age were be used for this experiment they were be kept for acclimatization in reversed light/dark cycle for 15 days. Animals will have free access to a standard chow diet and water during acclimatization period. After 15 days reversed light/dark cycle acclimatization animals were trained for fasting induced feed intake for 5 days till they show consistent feed intake. Grouping was done based on the monitored feed intake the training days. On treatment day each group of animals were dosed with test compound or vehicle by appropriate routes of administration (orally or intraperitoneally). Exactly 30 min. after treatment, measured amount of standard chow diet was provided and recorded as 0-min feed offered. Then subsequently 2, 4, 6 and 24 hour after 0-min, feed intake was measured and the cumulative feed intakes were calculated. The change in cumulative feed intake as compare to vehicle treated control at each time point was calculated for test compound and results were provided in table 2

human GPR 119 receptor = biological target: T1, human GPR 119 receptor (Homo sapiens, UniProt Q8TDV5); test: cAMP assay in stable cell line expressing recombinant human GPR 119 receptor; type: cell-based; details: intracellular cAMP, recombinant human GPR 119 cell line
T1 construct: expressed in transfected cells
T1 sequence (Q8TDV5 1-335): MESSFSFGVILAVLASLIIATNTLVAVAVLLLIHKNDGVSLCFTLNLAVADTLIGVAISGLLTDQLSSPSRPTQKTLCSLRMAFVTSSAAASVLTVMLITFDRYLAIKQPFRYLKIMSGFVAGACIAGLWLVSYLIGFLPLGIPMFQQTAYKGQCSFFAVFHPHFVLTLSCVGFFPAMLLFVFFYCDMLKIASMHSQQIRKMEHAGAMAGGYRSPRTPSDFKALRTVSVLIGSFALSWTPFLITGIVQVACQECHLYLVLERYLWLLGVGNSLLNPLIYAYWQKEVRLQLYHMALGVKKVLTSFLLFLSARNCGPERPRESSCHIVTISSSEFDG
Description: A stable cell line expressing recombinant human GPR 119 receptor was established and used to investigate the efficacy of the compounds of the invention based on the intracellular levels of cyclic AMP (cAMP) using commercially available cAMP kits. Compounds of the invention produced a concentration dependent increase in cAMP level and EC50 values of representative compounds were provided in table 1 and table 2 respectively.

C57/BL6 mice = test: Oral glucose tolerance test (OGTT) in C57/BL6 mice; type: in vivo, mouse; details: 30 mg/kg oral single dose; glucose load 3 gm/kg; serum glucose AUC
Protocol: Oral Glucose Tolerance Tests (OGTT) in C57/BL6 Mice:
C57/BL6 mice of 6-8 week age were used for this experiment. Animals were grouped based on non-fasting serum glucose levels and kept on fasting for overnight (day before OGTT). On the experiment day, each animal received a single dose of vehicle/test compounds (30 mg/kg) were administered orally, 30 min post dosing animals were bled for basal glucose level estimation and at same time glucose load (3 gm/kg) will be administered per orally. Blood was collected at time points corresponding to 20, 40, 60 and 120 min after glucose load administration. Serum was separated for determination of glucose levels and change in area under curve for glucose was calculated and provided in table 3 as % reduction in AUC.

Row | SMILES | % activity at 1 μM (human GPR 119 receptor) | EC50 (human GPR 119 receptor) | % reduction in food in take 2 hour (Sprague Dawley rats) | % reduction in food in take 4 hour (Sprague Dawley rats) | % reduction in food in take 6 hour (Sprague Dawley rats) | % reduction in food in take 24 hour (Sprague Dawley rats) | % reduction in AUC at 30 mg/kg (C57/BL6 mice)
1 | CC(=NOc1ncnc(N2CCC(c3nc(C(C)C)no3)CC2)c1C)c1ccc(OC(F)(F)F)cc1 [Example 16, 1-(4-(trifluoromethoxy)phenyl)ethanone O-6-(4-(3-isopropyl-1,2,4-oxadiazol-5-yl)piperidin-1-yl)-5-methylpyrimidin-4-yl oxime] | 78.54% | – | 43% | 25% | 16% | 4.5% | –
2 | CC(=NOc1ncnc(N2CCC(c3nc(C(C)C)no3)CC2)c1[N+](=O)[O-])c1ccc2c(c1)OCO2 [Example 4, 1-(benzo[d][1,3]dioxol-5-yl)ethanone O-6-(4-(3-isopropyl-1,2,4-oxadiazol-5-yl)piperidin-1-yl)-5-nitropyrimidin-4-yl oxime] | 47.28% | – | 45.3% | 29% | 14.1% | 0% | –
3 | CC(=NOc1ncnc(N2CCC(c3nc(C(C)C)no3)CC2)c1C)c1ccc(C(F)(F)F)cc1 [Example 15, 1-(4-(trifluoromethyl)phenyl)ethanone O-6-(4-(3-isopropyl-1,2,4-oxadiazol-5-yl)piperidin-1-yl)-5-methylpyrimidin-4-yl oxime] | 79.21% | – | 41% | 27% | 24% | 11% | 23.4%
4 | CC(=NOc1ncnc(N2CCC(c3nc(C(C)C)no3)CC2)c1C)c1ccc(S(C)(=O)=O)cc1F [Example 6, 1-(2-fluoro-4-(methylsulfonyl)phenyl)ethanone O-6-(4-(3-isopropyl-1,2,4-oxadiazol-5-yl)piperidin-1-yl)-5-methylpyrimidin-4-yl oxime] | 49.55% | – | 57% | 52% | 33.3% | 15.1% | 20%
5 | CC(=NOc1ncnc(N2CCC(c3nc(C(C)C)no3)CC2)c1C)c1ccc2ccccc2c1 [Example 22, 1-(naphthalen-2-yl)ethanone O-6-(4-(3-isopropyl-1,2,4-oxadiazol-5-yl)piperidin-1-yl)-5-methylpyrimidin-4-yl oxime] | 18.5% | – | 30% | 43% | 44% | 14% | –
6 | CC(=NOc1ncnc(N2CCC(c3nc(C(C)C)no3)CC2)c1C)c1ccc(F)cc1 [Example 8, 1-(4-fluorophenyl)ethanone O-6-(4-(3-isopropyl-1,2,4-oxadiazol-5-yl)piperidin-1-yl)-5-methylpyrimidin-4-yl oxime] | 64.11% | – | 32% | 17% | 12% | 4% | –

The next lines start with results.

Row | % activity at 1 μM (human GPR 119 receptor) | EC50 (human GPR 119 receptor) | SMILES | % reduction in food in take 2 hour (Sprague Dawley rats) | % reduction in food in take 4 hour (Sprague Dawley rats) | % reduction in food in take 6 hour (Sprague Dawley rats) | % reduction in food in take 24 hour (Sprague Dawley rats) | % reduction in AUC at 30 mg/kg (C57/BL6 mice)
7 | 17.7% | – | CC(=NOc1ncnc(N2CCC(c3nc(C(C)C)no3)CC2)c1[N+](=O)[O-])c1ccc2ccccc2c1 [Example 23, 1-(naphthalen-2-yl)ethanone O-6-(4-(3-isopropyl-1,2,4-oxadiazol-5-yl)piperidin-1-yl)-5-nitropyrimidin-4-yl oxime] | 38% | 26% | 26% | 4% | –
8 | 104.77% | 746 nM | CC(=NOc1ncnc(N2CCC(c3nc(C(C)C)no3)CC2)c1[N+](=O)[O-])c1ccc(F)cc1 [Example 9, 1-(4-fluorophenyl)ethanone O-6-(4-(3-isopropyl-1,2,4-oxadiazol-5-yl)piperidin-1-yl)-5-nitropyrimidin-4-yl oxime] | 41% | 31% | 23% | 12% | –
9 | 89.97% | – | CC(=NOc1ncnc(N2CCC(c3nc(C(C)C)no3)CC2)c1[N+](=O)[O-])c1ccc(S(C)(=O)=O)cc1F [Example 14, 1-(2-fluoro-4-(methylsulfonyl)phenyl)ethanone O-6-(4-(3-isopropyl-1,2,4-oxadiazol-5-yl)piperidin-1-yl)-5-nitropyrimidin-4-yl oxime] | 53% | 48% | 37% | 16% | 20%
10 | 88.99% | – | COc1ccc(C(C)=NOc2ncnc(N3CCC(c4nc(C(C)C)no4)CC3)c2[N+](=O)[O-])cc1 [Example 7, 1-(4-methoxyphenyl)ethanone O-6-(4-(3-isopropyl-1,2,4-oxadiazol-5-yl)piperidin-1-yl)-5-nitropyrimidin-4-yl oxime] | 53.5% | 42% | 36% | 12.9% | –
11 | 103.98% | – | CC(=NOc1ncnc(N2CCC(c3nc(C(C)C)no3)CC2)c1[N+](=O)[O-])c1ccc(S(C)(=O)=O)cc1 [Example 11, 1-(4-(methylsulfonyl)phenyl)ethanone O-6-(4-(3-isopropyl-1,2,4-oxadiazol-5-yl)piperidin-1-yl)-5-nitropyrimidin-4-yl oxime] | 76.2% | 43.1% | 36% | 17% | –
